Literature values, collected in patent publication US20090148519A1, “PULSED-RELEASE PREPARATION HAVING IMPROVED DISINTEGRATION PROPERTIES IN VIVO” (priority 2005, published 2009).

| Compound | half-life at pH 7 |
| --- | --- |
| COc1ccnc(C[S+]([O-])c2nc3cc(OC(F)F)ccc3[nH]2)c1OC (centres unmarked) [pantoprazole] | 39 hours |
| COCCCOc1ccnc(C[S+]([O-])c2nc3ccccc3[nH]2)c1C (centres unmarked) [rabeprazole] | 30 minutes |
